Among the data in US8592428B2 (MSD K. K., priority 2008, dated 2013) are solubility, EC50 and Emax values, retold here.

Converted amounts (≈) assume the structure as drawn.

Data set [1] can be described thus: Solubility in water by solution precipitation method (HPLC). The class given is physicochemical. The following applies: water (2% DMSO), kinetic from dmso stock, from 10 mM DMSO solution, 60 minutes stirring at room temperature, compounds of the present invention. The method, then:
For solubility in water, the solubility of a compound in water was determined by a solution precipitation method.
For an HPLC system, Agilent HPLC 1100 system was used. […] For a shaker, Microincubator M-36 (Taitec) was used. For a plate, a 96-deep well plate (Nunc. 260252) was used. For a well cap, Pre-Slit Well Cap for 96 Well PP (NALGENE. 276011) was used. For a filtration plate, MultiScreen Solubility (Millipore; MSSLBPC10) was used. For dispensation, an 8-channel electronic multipipette, Biohit Proline (Biohit), and a 96-well automatic pipetting device, Biomeck 2000 (Biomeck) were used. For a reagent used, a pure solvent for DMSO ultraviolet absorption spectrum (Dojindo 349-01025) and water (MiliQ water, manufactured by Millipore).
For a DMSO solution, a sample was prepared with DMSO to be precisely 10 mM.
Precise dispensation of 10 μL of a DMSO solution into each well of a 96-well plate was performed. Following addition of 490 μL of water to each of the wells and plate-sealing with 96-well Cap (Agilent No. 5042-1389), intense stirring processing of the plate was performed for 60 minutes at room temperature on a shaker. Subsequently, 200 μL of a treatment sample was added to a plate for centrifugal filtration, and centrifugal filtration of the sample was performed to obtain a filtrate. A sample solution was made by adding 200 μl, of a 50% aqueous acetonitrile solution to the provided filtrate.
Precise dispensation of 10 μL of a DMSO solution into each well of a 96-well plate was performed.
Detection was performed using a multi-wavelength detector (190-370 nm). For a column, the above-mentioned column was used at 40° C. A flow rate was set at 1.2 ml/min, and an amount of an injected sample at 20 μL. For a moving phase, a 0.1% aqueous phosphoric acid solution as a liquid A and acetonitrile as a liquid B were used to carry out analyses in accordance with a time schedule described below.
For the analyses, the data of UV 275 nm were adopted. […] Using the calibration curve, regression calculation of concentrations in water was carried out from Area of sample solutions (water).

Data set [2] deals with T1, recombinant human liver GK (Homo sapiens, UniProt P35557).
T1 construct: made in house; host or cells: E. coli
T1 sequence (P35557 1-466 isoform P35557-2): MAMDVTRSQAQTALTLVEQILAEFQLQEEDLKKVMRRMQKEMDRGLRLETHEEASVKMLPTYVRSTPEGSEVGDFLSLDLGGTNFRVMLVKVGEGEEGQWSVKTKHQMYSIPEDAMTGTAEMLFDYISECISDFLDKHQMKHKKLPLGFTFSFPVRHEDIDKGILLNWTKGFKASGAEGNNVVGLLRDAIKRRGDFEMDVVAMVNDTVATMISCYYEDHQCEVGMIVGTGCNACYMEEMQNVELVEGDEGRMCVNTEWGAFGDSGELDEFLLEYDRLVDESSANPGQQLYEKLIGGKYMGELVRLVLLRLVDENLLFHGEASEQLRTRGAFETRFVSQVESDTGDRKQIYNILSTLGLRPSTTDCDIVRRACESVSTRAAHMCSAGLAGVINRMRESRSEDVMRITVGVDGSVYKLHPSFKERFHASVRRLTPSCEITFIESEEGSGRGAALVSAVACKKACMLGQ
The data set is described as follows: Glucokinase-activating effect (Thio-NADH coupled G6PDH assay). In kind it is biochemical. Conditions: final glucose concentration 2.5 mM, 30° C.; for Emax: OD level of DMSO control = 100%. From the text:
The excellent glucokinase-activating effect of the compounds of formula (I) may be determined by a method described in literature (for example, Diabetes, Vol. 45, pp. 1671-1677, 1996), or in accordance with it.
The glucokinase activity may be determined not by directly measuring glucose-6-phosphate but by measuring the level of Thio-NADH, which is produced when a reporter enzyme, glucose-6-phosphate dehydrogenase produces phosphogluconolactone from glucose-6-phosphate, and based on the level, the degree of glucokinase activation by the compound tested may be determined.
In this assay, used was a recombinant human liver GK, which was expressed by E. coli as a FLAG fusion protein therein and was purified by […] M2 AFFINITY GEL (Sigma).
Using a flat-bottomed 96-well plate, the assay was carried out at 30° C. 69 μl of an assay buffer (25 mM Hepes Buffer/pH=7.2, 2 mM MgCl2, 1 mM ATP, 0.5 mM TNAD, 1 mM dithiothreitol) was put into the plate, and 1 μl of a DMSO solution of the compound or DMSO alone as a control was added thereto. Next, 20 μl of an enzyme mixture (FLAG-GK, 20 U/ml G6PDH) cooled in ice was added to it, and 10 μl of a substrate, 25 mM glucose was added to it, and the reaction was initiated (final glucose concentration=2.5 mM).
After the start of the reaction, the increase in the absorbance at 405 nm was measured for 12 minutes at intervals of 30 seconds, and the increase for the first 5 minutes was used for assessing the compound tested. FLAG-GK was added so that the absorbance increase after 5 minutes in the presence of 1% DMSO could be from 0.04 to 0.06.
The OD level of the DMSO control was set as 100%; and the OD level of the test compound at different concentrations was determined. From the OD level at each concentration, Emax (%) and EC50 (μM) were computed and used as the index of the GK-activating potency of the compound.

As usually defined, the solubility is the dissolved amount per volume that the medium holds. In general, EC50 refers to the concentration at which the effect is half-maximal. In the case of `CC(=O)N1CCC[C@@H]1c1cc2[nH]c(-c3cnc(CO)cn3)cc2cc1Oc1ccc(S(C)(=O)=O)nc1` [Example 10, 6-[(R)-1-acetylpyrrolidin-2-yl]-2-(5-hydroxymethylpyrazin-2-yl)-5-(6-methylsulfonylpyridin-3-yloxy)-1H-indole], in data set [1], the solubility at 60 min was determined as 95.1 µM (≈ 48.3 µg/mL). For the same compound, in data set [2], the half-maximal effective concentration (EC50) stood at 110 nM.
What is called Emax is the size of the effect at its maximum, as opposed to the concentration needed. In data set [1], `CC(=O)N1CCC[C@@H]1c1cc2[nH]c(-c3cnc(C)cn3)cc2cc1Oc1ccc(OCCO)nc1` [Example 13, 6-[(R)-1-acetylpyrrolidin-2-yl]-5-[6-(2-hydroxyethoxy)pyridin-3-yloxy]-2-(5-methylpyrazin-2-yl)-1H-indole] yielded a solubility at 60 min of 93.7 µM (≈ 44.4 µg/mL). Also, in data set [2], the Emax is 995% and the 50% effective concentration (EC50) turned out to be 230 nM.
In data set [1], `COCc1ccc(Oc2cc3cc(-c4ccc(CO)cn4)[nH]c3cc2[C@H]2CCCN2C(C)=O)cn1` [Example 15, 6-[(R)-1-acetylpyrrolidin-2-yl]-2-(5-hydroxymethylpyridin-2-yl)-5-(6-methoxymethylpyridin-3-yloxy)-1H-indole] had a solubility at 60 min of 168 µM (≈ 79.4 µg/mL). In data set [2], the Emax worked out at 849% and the EC50 worked out at 130 nM.
Take `COCc1ccc(Oc2cc3cc(-c4cnc(CO)cn4)[nH]c3cc2[C@H]2CCCN2C(C)=O)cn1` [Example 16, 6-[(R)-1-acetylpyrrolidin-2-yl]-2-(5-hydroxymethylpyrazin-2-yl)-5-(6-methoxymethylpyridin-3-yloxy)-1H-indole]: the solubility at 60 min in data set [1] was > 170 µM. Moreover, the concentration for a half-maximal effect (EC50) in data set [2] was determined as 170 nM.
For `COCc1ccc(Oc2cc3cc(-c4cnccn4)[nH]c3cc2[C@H]2CCCN2C(C)=O)cn1` [Example 17, 6-[(R)-1-acetylpyrrolidin-2-yl]-5-(6-methoxymethylpyridin-3-yloxy)-2-(pyrazin-2-yl)-1H-indole], the solubility at 60 min in data set [1] is > 170 µM. Moreover, in data set [2], the Emax worked out at 988% and the concentration giving a half-maximal response (EC50) was found to be 80 nM.
In turn, `CCNC(=O)c1ccc(Oc2cc3cc(-c4cnccn4)[nH]c3cc2[C@H]2CCCN2C(C)=O)cn1` [Example 26, 6-[(R)-1-acetylpyrrolidin-2-yl]-5-[6-(N-ethylcarbamoyl)pyridin-3-yloxy]-2-(pyrazin-2-yl)-1H-indole] yielded a solubility at 60 min in data set [1] of 129 µM (≈ 60.7 µg/mL). In addition, in data set [2], the maximum response (Emax) came out at 942% and the EC50 was 160 nM.
With `CCN(CC)C(=O)c1ccc(Oc2cc3cc(-c4cnccn4)[nH]c3cc2[C@H]2CCCN2C(C)=O)cn1` [Example 27], the solubility at 60 min in data set [1] is > 170 µM. In data set [2], the maximal response (Emax) is 957% and the concentration giving a half-maximal response (EC50) is 120 nM.
For the compound `CC(=O)N1CCC[C@@H]1c1cc2[nH]c(-c3cnccn3)cc2cc1Oc1ccc(C(=O)N(C)CCO)nc1` [Example 28], the solubility at 60 min in data set [1] was > 170 µM. In addition, the EC50 in data set [2] was 100 nM.
